These results are taken from PubChem BioAssay (NCI).

Test in all cases: NCI tumour cell line growth inhibition, 48 h
Assay [1] has as its system SF-539 CNS.
Assay [2] concerns SF-268 CNS.
The test system of assay [3] is SN12C renal.
In assay [4] the test system is SNB-19 CNS.
The test system of assay [5] is SK-MEL-28 melanoma.
The subject of assay [6] is RPMI-8226 leukemia.
The subject of assay [7] is HOP-92 NSCLC.
Assay [8] concerns SW-620 colon.
Assay [9] has as its system CCRF-CEM leukemia.
Assay [10] has as its system SK-OV-3 ovarian.

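In this assay, cells in 96-well plates receive the compound at five concentrations for 48 hours. Endpoints are linearly interpolated between the surrounding concentrations. GI50: concentration for 50% inhibition of growth. At the TGI there is no net growth.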

Turning to `CC(C)(C)c1cc2c(OP(c3ccccc3)c3ccccc3)c(c1)Cc1cc(C(C)(C)C)cc(c1OP(c1ccccc1)c1ccccc1)Cc1cc(C(C)(C)C)cc(c1OP(c1ccccc1)c1ccccc1)Cc1cc(C(C)(C)C)cc(c1OP(c1ccccc1)c1ccccc1)C2`, the GI50 in assay [1] is over 50 µM; in assay [2] it was over 50 µM; in [3], over 50 µM; in [4], over 50 µM; in [5] it was over 50 µM; in assay [6] it was 35.9 µM. For the same molecule, the GI50 in assay [7] is over 50 µM; in assay [8], over 50 µM; in assay [9] it was 44.6 µM; in [10], over 50 µM. Also, the TGI in [1], in assay [2], in assay [3], in assay [4], in assay [5] and in [6] was over 50 µM each time. The TGI in assay [7], in [8], in assay [9] and in [10] was over 50 µM throughout.

As to `[O-]c1c(-c2ccccc2)[se]c(-c2ccccc2)[n+]1-c1ccccc1`, the TGI in assay [1] was 4.35 µM; in assay [2], 21.6 µM; in assay [3] it was 17.9 µM; in assay [4], 20.2 µM; in assay [5] it was 22.7 µM; in assay [6], over 100 µM. Further, the TGI was determined as 38.1 µM in [7], 34.2 µM in assay [8], 31.8 µM in [9] and 39.2 µM in [10].

As to `COc1ccc(-c2ccc(=O)oc2-c2cc(OC)c(OC)c(OC)c2)cc1O`, the GI50 was under 0.0149 µM in [1]; 0.0606 µM in [2]; 0.0697 µM in assay [3]; 0.0571 µM in assay [4]; 1.64 µM in assay [5]; 0.0251 µM in assay [6]. The values for the GI50 in assay [8], in [9] and in assay [10] were under 0.0147 µM, 0.0219 µM and 0.0307 µM, respectively. The TGI is 0.104 µM in [1]; over 34.8 µM in assay [2]; over 100 µM in assay [3]; over 100 µM in [4]; over 100 µM in [5]; 0.956 µM in assay [6]. Further, the TGI in assay [7], in [8] and in assay [10] was over 100 µM in each case.

Consider `COc1cccc(NC(=O)c2ccc(C(F)(F)F)nc2Nc2ccc(Cl)cc2C)c1`, for which the GI50 in assay [1] was 15.1 µM; in assay [2], 13.8 µM; in assay [3], 12.4 µM; in assay [4], 13.8 µM; in assay [5] it was 15 µM; in assay [6] it was 5.54 µM. Also, the GI50 in [7] is 4.76 µM; in [8] it was 14.5 µM; in assay [9] it was 11.1 µM; in assay [10], 13.4 µM. Moreover, the TGI turned out to be 30.5 µM in [1]; 32.6 µM in assay [2]; 25.7 µM in assay [3]; 28.7 µM in assay [4]; 28.8 µM in assay [5]; 28.4 µM in assay [6]. In addition, the TGI in assay [7] is 21.4 µM; in assay [8], 28.7 µM; in assay [9], 34.4 µM; in assay [10], 27.8 µM.

On to `CCCN(CCC)c1ccc(C=O)c(OC)c1`, for which the GI50 in assay [1] is 26 µM; in assay [2], 22 µM; in [3] it was 32.7 µM; in assay [4] it was 29.4 µM; in assay [5] it was 21.3 µM; in assay [6] it was 58.6 µM. The GI50 in assay [7] is 13.3 µM; in assay [8], 22.9 µM; in [9] it was 24.4 µM; in assay [10] it was 25.8 µM. The TGI was over 100 µM in [1]; over 100 µM in [2]; over 100 µM in assay [3]; over 100 µM in assay [4]; 83.9 µM in [5]; over 100 µM in assay [6]. The TGI in [7] is 86.7 µM; in assay [8], over 100 µM; in assay [9], over 100 µM; in assay [10] it was over 100 µM.

Consider `O=C1c2ccccc2C(=O)c2c1c(NCCNCCO)c1cc[nH]c1c2NCCNCCO`, for which the GI50 in assay [1] is 1.25 µM; in [2], 0.935 µM; in [3], 0.354 µM; in [4], 1.26 µM; in [5], 3.27 µM; in assay [6], 13.9 µM. For the same molecule, the GI50 in assay [7] is 3.06 µM; in assay [8], 3.28 µM; in assay [9], 1.04 µM; in assay [10], 2.85 µM. The TGI was 14.5 µM in assay [1]; 5.28 µM in assay [2]; 2.67 µM in assay [3]; 12.9 µM in assay [4]; 20.5 µM in [5]; 47.8 µM in assay [6]. Further, the TGI in assay [7] amounted to 16.5 µM; in assay [8], 25.9 µM; in [10], 13.6 µM.

Consider `NC(N)=NS(=O)(=O)c1ccc(NC(=O)c2ccc(Cl)c3c(Nc4ccc(S(=O)(=O)N=C(N)N)cc4)c4ccccc4nc23)cc1`, for which the TGI in [1], in [2], in assay [3], in assay [4], in assay [5] and in assay [6] was over 100 µM each time. Moreover, the TGI in assay [7] was 79.9 µM; in [8], over 100 µM; in assay [9], over 100 µM; in assay [10] it was over 100 µM.

For `Cn1c(-c2c(N)n(Cc3ccc(Cl)cc3)c3nc(C#N)c(C#N)nc23)nc2ccccc21`, the GI50 is 6.64 µM in assay [1]; 16.3 µM in assay [2]; 2.57 µM in assay [3]; 12.3 µM in assay [4]; 2.86 µM in assay [5]; 1.73 µM in assay [6]. Also, the GI50 in [7] was 2.35 µM; in [8], 5.26 µM; in assay [10], 1.89 µM. The TGI is 14.5 µM in assay [1]; over 50 µM in assay [2]; 10.3 µM in [3]; 46.5 µM in assay [4]; 13.9 µM in [5]; over 50 µM in [6]. Further, the TGI in assay [7] was 10.1 µM; in [8], over 50 µM; in assay [10], 5.67 µM.

As to `Cc1cc(Cl)ccc1OCC(=O)Oc1c(Cl)c(Cl)c(Cl)c(Cl)c1Cl`, the TGI in assay [1] was over 100 µM; in assay [2], over 100 µM; in assay [3], 62.9 µM; in [4], 75.5 µM; in [5], over 100 µM; in assay [6], 61.7 µM. The TGI is 40 µM in assay [7], over 100 µM in [8] and 83.8 µM in assay [10].

Take `CN(C)c1ccc2c(SCC(=O)OCC(=O)[C@@]3(O)CC[C@H]4[C@@H]5CCC6=CC(=O)C=C[C@]6(C)[C@H]5C(=O)C[C@@]43C)c3ccc(N(C)C)cc3nc2c1`: the TGI in assay [1] is over 56.3 µM; in assay [2], over 100 µM; in [3], over 59.3 µM; in assay [4] it was over 94.5 µM; in assay [5] it was over 76.1 µM; in [6], 82.5 µM. Also, the TGI is over 64.6 µM in assay [7], over 100 µM in assay [8] and over 100 µM in [10].

On to `CNC1=C(Br)C(=O)C2=C(C1=O)C1C3=C(C(=O)C=CC3=O)C2c2ccccc21` (stereo not drawn), for which the GI50 is 2.97 µM in assay [2]; 1.65 µM in assay [3]; 14.4 µM in assay [4]; 3.39 µM in assay [5]; 1.91 µM in assay [7]; 2.79 µM in assay [8]. Also, the GI50 was 0.472 µM in assay [9] and 10.3 µM in [10]. Moreover, the TGI was over 29.4 µM in assay [2]; 3.21 µM in [3]; 67.4 µM in assay [4]; over 24.7 µM in [5]; over 31.4 µM in assay [6]; 4.19 µM in [7]. For the same molecule, the TGI is over 29.1 µM in [8], over 100 µM in assay [9] and over 55.2 µM in assay [10].

`S=C(S)NCCCn1ccnc1`: the TGI in assay [1], in assay [2], in assay [3], in [4], in assay [5] and in [6] was over 100 µM throughout. The TGI in [7], in assay [8] and in assay [10] was over 100 µM each time.

As for `NC(CCc1nc(-c2ccccc2)cs1)C(=O)O` (stereo not drawn), the TGI in assay [1], in [3], in assay [4], in assay [5], in assay [6] and in [7] was over 100 µM in each case. Besides, the TGI in [8], in [9] and in [10] was over 100 µM in each case.

Take `CO/N=C(\COc1ccc2c(=O)cc(-c3ccccc3)oc2c1)c1ccc(OC)cc1`: the GI50 was over 100 µM in [1]; 88.2 µM in assay [3]; over 100 µM in assay [5]; 74 µM in [6]; 20.2 µM in assay [7]; over 100 µM in assay [8]. Also, the GI50 in [9] and in assay [10] was over 100 µM in each case. Further, the TGI is over 100 µM in assay [1]; over 100 µM in assay [3]; over 100 µM in assay [5]; over 100 µM in assay [6]; 96.4 µM in assay [7]; over 100 µM in assay [8]. The TGI in [9] and in assay [10] was over 100 µM throughout.

For `CCCCCCCCCCSS(=O)(=O)c1ccc(C)cc1`, the TGI in assay [1] was 3.67 µM; in assay [2], 19 µM; in assay [3] it was 25.1 µM; in [4] it was 27.6 µM; in assay [5] it was 10.2 µM; in assay [6], 29.6 µM. The TGI is 27.2 µM in [7], 33.4 µM in assay [8] and 42.9 µM in assay [10].

Consider `COc1ncnc2c1ncn2C/C(Br)=C(\Br)CCl`, for which the GI50 in [1] is 2.17 µM; in [2], 1.96 µM; in assay [3], 2.44 µM; in assay [4], 12.1 µM; in [5] it was 2.62 µM; in assay [6] it was 3.19 µM. The GI50 in assay [7] is 4.08 µM; in assay [9], 2.73 µM; in assay [10], 14.8 µM. For the same molecule, the TGI was 7.61 µM in [1]; 5.59 µM in [2]; 9.52 µM in assay [3]; 24.5 µM in assay [4]; 8.62 µM in [5]; 16.4 µM in assay [6]. Besides, the results for the TGI in assay [7], in assay [9] and in assay [10] were 16.4 µM, 13.5 µM and 28 µM, respectively.

For the molecule `CN(C)CC1CCC(CN(C)C)C1=NO` (stereo not drawn), the TGI in [1], in assay [2], in assay [3], in [5], in assay [6] and in [7] was over 100 µM in each case. Moreover, the TGI in assay [8] and in [9] was over 100 µM in each case.

On to `CN1CCN(c2ccc3nc(-c4ccc5nc(-c6ccc(C(F)(F)F)cc6)[nH]c5c4)[nH]c3c2)CC1`, for which the GI50 in assay [1] was 1.62 µM; in [2], 1.97 µM; in assay [3], 1.9 µM; in assay [5], 1.77 µM; in assay [6], 2.06 µM; in assay [7] it was 2.49 µM. The GI50 is 1.47 µM in assay [8] and 1.56 µM in assay [9]. Further, the TGI in [1] is 3.09 µM; in assay [2] it was 3.93 µM; in [3] it was 3.96 µM; in assay [5], 3.34 µM; in assay [6], 4.51 µM; in assay [7] it was 14.7 µM. Besides, the TGI in assay [8] was 3.09 µM; in [9], 3.68 µM.

As for `O=c1cc(-c2ccccc2)oc2cc(OCc3cn(Cc4ccc(F)cc4)nn3)cc(O)c12`, the GI50 was 5.17 µM in [1]; 4.32 µM in assay [2]; over 100 µM in assay [3]; 4.51 µM in [4]; over 100 µM in assay [6]; 4.43 µM in assay [7]. Moreover, the GI50 in [8] was over 100 µM; in [9] it was over 100 µM; in assay [10], 6.57 µM. The TGI in assay [1] was over 100 µM; in assay [2], over 100 µM; in assay [3] it was over 100 µM; in [4], 83.2 µM; in assay [6], over 100 µM; in assay [7] it was 45.5 µM. The TGI in assay [8], in [9] and in [10] was over 100 µM throughout.
